Experimental data taken from patent US9359341B2, “Aldehyde derivative of substitute oxazolidinones” (WANBURY LTD., priority 2012, dated 2016).

How the values were obtained:
[1] = In vitro liver microsomal stability assay (mouse); assay type: in vitro ADME; conditions: mouse liver microsomes
Description: (§1) Liver microsomal stability assays are conducted at 1 mg per mL liver microsome protein with an NADPH in phosphate buffer (100 mM, pH 7.4). Test compounds (compound of formula B of the invention) are prepared as solutions in 20% methanol-water and added to the assay mixture (final assay concentration 1 μM) and incubated at 37° C. Aliquots (100.μ·L) are taken out at times 0, 15, and 30 minutes, and diluted with ice cold acetonitrile containing IS (200.mu·L) to stop the reactions. Samples are centrifuged at 10,000 RPM for 5 minutes to precipitate proteins. Supernatants are transferred to micro centrifuge tubes and stored at −20° C. for analysis of LC/MS/MS. The percent parent remaining of the test substance is calculated as Ratio of peak area at each time point to peak area ratio at zero min, multiplied by 100. The compound formula (B) is converted to Rivaroxaban in microsomal assay.

CYP2C19 = CYP2C19 (Homo sapiens (Human), UniProt P33261); test: CYP inhibition assay; assay type: in vitro ADME; conditions: pooled human liver microsomes; extrapolated IC50 derived from 3 μM; read-out: IC50 (μM) of CYP isoforms, 2C19
Description: (§2) The ability of substances to inhibit CYP1A2, CYP2C9, CYP2D6, CYP2C19, CYP2J2 and CYP3A4 in humans was investigated with pooled human liver microsomes as enzyme source in the presence of standard substrates (see below) which form CYP-isoform-specific metabolites.
(§3) Standard incubation mixtures comprise NADPH and substrates in 100 mM phosphate buffer (pH 7.4) in a total volume of 200 μl. Test compound are dissolved in acetonitrile. Incubated with pooled human liver microsomes at 37° C. for a defined time. The reactions are stopped by adding 100 μl of acetonitrile in which a suitable internal standard is always present. Precipitated proteins are removed by centrifugation, and the supernatants analyzed by LC-MS/MS. The data represents the extrapolated IC50 (μM) concentration derived from 3 μM.

CYP2C9 = CYP2C9 (Homo sapiens (Human), UniProt P11712); test: CYP inhibition assay; assay type: in vitro ADME; conditions: pooled human liver microsomes; extrapolated IC50 derived from 3 μM; read-out: IC50 (μM) of CYP isoforms, 2C9
Description: as §2, §3

CYP2J2 = CYP2J2 (Homo sapiens (Human), UniProt P51589); test: CYP inhibition assay; assay type: in vitro ADME; conditions: pooled human liver microsomes; extrapolated IC50 derived from 3 μM
Description: as §2, §3

CYP2D6 = CYP2D6 (Homo sapiens (Human), UniProt P10635); test: CYP inhibition assay; assay type: in vitro ADME; conditions: pooled human liver microsomes; extrapolated IC50 derived from 3 μM; read-out: IC50 (μM) of CYP isoforms, 2D6
Description: as §2, §3

[2] = Intravenous and oral excretion profile in Wistar rats; assay type: in vivo; conditions: for Mean (ng) Urine: IV 1 mg/Kg, rivaroxaban in urine
Description: On the day before administration of the substance, a catheter for obtaining blood is implanted in the jugular vein of the experimental animals (male Wistar rats, body weight 200-250 g) under Isoflurane. anesthesia.
Urine and faeces are taken collected from metabolic cages over the course of 144 h after administration of the substance. The administration volume is 10 ml/kg for oral and 1 ml/kg for IV in male Wistar rats. Intravenous administration is via a formulation of 2% N—N Dimethyl acetamide/ethanol 10%/PEG400 (30%)/water for IV injection (58%) and via Tween80/PEG400/sterile water in the case of oral administration. Urine and faeces collection is 0-4, 4-8, 8-24, 24-48, 48-72, 72-96, 96-120, 120-144 in the case of IV and for oral administration.
Urine and faeces was processed and IS containing Acetonitrile is added to a defined urine/faeces and precipitated. After centrifugation, compound formula (B) and, where appropriate, known cleavage products of the compound formula (B) in the supernatant are determined quantitatively using a suitable LC/MS-MS method.
The measured urine and faeces concentrations are used to calculate parameters of the test substance and of the active ingredient compound (A) liberated there from, such as AUC and Cmax.
Acetonitrile containing IS is added to the study samples, calibration samples and QCs, and the protein is precipitated using acetonitrile. Vortexed and centrifuged and the supernatant is injected by LC-MS/MS (API 4000, AB Sciex). Chromatographic separation is carried out on an Shimadzu UFLC. The injection volume is 10 μl. The separation column used is a Phenomenex Gemini NX 4.6×5μ. 100 mm, adjusted to a temperature of 30° C. A binary mobile phase gradient at 800.mu·l/min is used (A: 0.1% formic acid in water, B: acetonitrile: API 4000, ESI Agilent 1100 column: Gemini Nx 100 mm×4.6 mm 5.μ; column temperature: 30° C.; eluent A: 0.1% formic acid in water, eluent B: acetonitrile; gradient: 0-2.5 min 95% A, 5% B; 2.5-2.6 min 5% A, 95% B; 2.6-4.2 min 95% A, 5% B; flow rate: 0.8 ml/min; ESI. Q1:464.098, Q3:144.255 The temperature of the Turbo V ion source is 500° C. The following MS instrument parameters are used: curtain gas 20 units, ion spray voltage 5 kV, gas 1 50 units gas 2 50 units, CAD gas 6 units. The substances are quantified by peak heights or areas using extracted ion chromatograms of specific MRM experiments.

[3] = In vitro stability in human plasma; assay type: in vitro ADME
Description: (§4) The final concentration of the test compound in the assay is 5 micromolar. […] C. The 100 microliters of aliquot at time point was removed and diluted with ice cold acetonitrile containing IS (200.mu·L) to stop the reactions. Samples are centrifuged at 10,000 RPM for 5 minutes to precipitate proteins. Supernatants are transferred to micro centrifuge tubes and stored at −20° C. for analysis of LC/MS/MS. The percent parent remaining of the test substance is calculated as ratio of peak area at each time point to peak area ratio at zero min, multiplied by 100.
(§5) API 4000, ESI Agilent 1100 column: Gemini Nx 100 mm×4.6 mm 5.1; column temperature: 30° C.; eluent A: 0.1% formic acid in water, eluent B: acetonitrile; gradient: 0-2.5 min 95% A, 5% B; 2.5-2.6 min 5% A, 95% B; 2.6-4.2 min 95% A, 5% B; flow rate: 0.8 ml/min; ESI. Q1:464.098, Q3:144.255

[4] = In vitro liver microsomal stability assay (human); assay type: in vitro ADME; conditions: human liver microsomes
Description: as §1

[5] = In vitro liver microsomal stability assay (rat); assay type: in vitro ADME; conditions: rat liver microsomes
Description: as §1

CYP1A2 = CYP1A2 (Homo sapiens (Human), UniProt P05177); test: CYP inhibition assay; assay type: in vitro ADME; conditions: pooled human liver microsomes; extrapolated IC50 derived from 3 μM; read-out: IC50 (μM) of CYP isoforms, 1A2
Description: as §2
Standard incubation mixtures comprise NADPH and substrates in 100 mM phosphate buffer (pH 7.4) in a total volume of 200 μl. Test compound are dissolved in acetonitrile. Incubated with pooled human liver microsomes at 37° C. for a defined time. The reactions are stopped by adding 100 μl of acetonitrile in which a suitable internal standard is always present. Precipitated proteins are removed by centrifugation, and the supernatants analyzed by LC-MS/MS.

[6] = In vitro stability in mouse plasma; assay type: in vitro ADME
Description: as §4, §5

[7] = In vitro stability in rat plasma; assay type: in vitro ADME
Description: as §4, §5

Chain of CYP2J2 (P51589 whole entry): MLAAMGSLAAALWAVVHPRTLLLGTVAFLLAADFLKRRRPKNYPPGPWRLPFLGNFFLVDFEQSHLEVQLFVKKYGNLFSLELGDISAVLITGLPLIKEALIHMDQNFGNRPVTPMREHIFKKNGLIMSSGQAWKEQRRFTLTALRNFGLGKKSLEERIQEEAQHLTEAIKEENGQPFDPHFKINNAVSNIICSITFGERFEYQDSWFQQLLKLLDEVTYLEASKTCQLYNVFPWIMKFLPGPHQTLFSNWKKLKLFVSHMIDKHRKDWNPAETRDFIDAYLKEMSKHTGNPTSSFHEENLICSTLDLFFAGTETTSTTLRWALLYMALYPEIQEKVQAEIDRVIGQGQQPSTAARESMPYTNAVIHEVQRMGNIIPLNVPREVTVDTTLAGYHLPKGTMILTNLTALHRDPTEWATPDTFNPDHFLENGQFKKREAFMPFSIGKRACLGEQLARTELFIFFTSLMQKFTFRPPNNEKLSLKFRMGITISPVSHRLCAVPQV
Chain of CYP2C9 (P11712 whole entry, canonical isoform): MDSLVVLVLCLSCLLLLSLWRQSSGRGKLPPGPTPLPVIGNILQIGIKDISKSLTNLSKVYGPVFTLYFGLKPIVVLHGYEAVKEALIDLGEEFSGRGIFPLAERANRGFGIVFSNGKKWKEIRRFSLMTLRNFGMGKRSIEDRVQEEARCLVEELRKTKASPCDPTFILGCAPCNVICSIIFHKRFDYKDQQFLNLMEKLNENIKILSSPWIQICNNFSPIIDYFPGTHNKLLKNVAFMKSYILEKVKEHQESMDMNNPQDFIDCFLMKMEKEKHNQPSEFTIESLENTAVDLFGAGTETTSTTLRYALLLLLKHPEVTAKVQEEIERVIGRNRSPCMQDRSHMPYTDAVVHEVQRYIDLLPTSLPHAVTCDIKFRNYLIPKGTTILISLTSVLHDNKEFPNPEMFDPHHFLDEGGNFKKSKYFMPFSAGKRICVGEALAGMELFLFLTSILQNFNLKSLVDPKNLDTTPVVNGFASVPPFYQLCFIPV
Chain of CYP2C19 (P33261 whole entry, canonical isoform): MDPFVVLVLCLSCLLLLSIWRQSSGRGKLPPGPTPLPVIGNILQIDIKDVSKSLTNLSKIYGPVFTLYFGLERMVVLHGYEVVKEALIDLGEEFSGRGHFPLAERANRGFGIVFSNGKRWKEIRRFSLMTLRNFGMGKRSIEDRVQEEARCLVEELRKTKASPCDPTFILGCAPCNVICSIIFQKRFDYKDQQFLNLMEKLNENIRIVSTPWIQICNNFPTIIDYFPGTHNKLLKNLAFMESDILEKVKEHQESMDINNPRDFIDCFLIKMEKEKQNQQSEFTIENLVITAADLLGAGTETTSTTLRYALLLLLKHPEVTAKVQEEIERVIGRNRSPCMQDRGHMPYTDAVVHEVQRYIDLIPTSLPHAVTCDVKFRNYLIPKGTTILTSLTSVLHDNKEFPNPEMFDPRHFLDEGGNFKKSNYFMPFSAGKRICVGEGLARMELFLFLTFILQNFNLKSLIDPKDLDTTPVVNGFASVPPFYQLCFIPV
Chain of CYP2D6 (P10635 whole entry, canonical isoform): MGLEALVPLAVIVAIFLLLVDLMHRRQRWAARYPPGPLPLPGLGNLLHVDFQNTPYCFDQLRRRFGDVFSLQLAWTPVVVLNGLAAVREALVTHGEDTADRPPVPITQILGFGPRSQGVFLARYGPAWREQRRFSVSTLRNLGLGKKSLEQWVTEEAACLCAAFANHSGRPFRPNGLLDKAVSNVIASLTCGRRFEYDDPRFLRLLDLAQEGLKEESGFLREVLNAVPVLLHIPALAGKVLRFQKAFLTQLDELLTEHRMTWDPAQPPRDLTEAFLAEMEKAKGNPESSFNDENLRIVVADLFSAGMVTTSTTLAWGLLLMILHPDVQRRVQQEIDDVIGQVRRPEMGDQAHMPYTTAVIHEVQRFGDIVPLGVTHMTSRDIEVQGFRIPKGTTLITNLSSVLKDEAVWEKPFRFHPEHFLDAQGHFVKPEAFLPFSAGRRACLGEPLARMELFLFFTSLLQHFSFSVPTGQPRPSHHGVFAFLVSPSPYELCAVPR
Chain of CYP1A2 (P05177 whole entry, canonical isoform): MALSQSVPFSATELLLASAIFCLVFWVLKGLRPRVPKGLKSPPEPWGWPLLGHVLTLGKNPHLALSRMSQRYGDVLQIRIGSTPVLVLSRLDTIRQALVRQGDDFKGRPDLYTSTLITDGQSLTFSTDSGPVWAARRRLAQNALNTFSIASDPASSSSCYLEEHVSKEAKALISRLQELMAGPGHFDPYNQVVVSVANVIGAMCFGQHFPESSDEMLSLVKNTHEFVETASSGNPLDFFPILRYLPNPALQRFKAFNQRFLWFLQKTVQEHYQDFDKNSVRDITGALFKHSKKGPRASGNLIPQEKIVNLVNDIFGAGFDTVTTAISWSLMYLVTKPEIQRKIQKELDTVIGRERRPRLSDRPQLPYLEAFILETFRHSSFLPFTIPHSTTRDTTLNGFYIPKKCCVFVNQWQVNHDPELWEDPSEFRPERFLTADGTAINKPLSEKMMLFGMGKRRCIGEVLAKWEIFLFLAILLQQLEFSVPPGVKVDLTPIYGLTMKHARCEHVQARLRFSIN

O=C(NC[C@H]1CN(c2ccc(N3CCOCC3=O)cc2)C(=O)O1)c1ccc(Cl)s1 [Rivaroxaban, 5-chloro-N-({(5S)-2-oxo-3-[4-(3-oxomorpholin-4-yl)phenyl]-1,3-oxazolidin-5-yl}methyl)thiophene-2-carboxamide]
% metabolised [1]: 99.98%
Observation (metabolism; for Test Product: of the formed rivaroxaban) [1]: High
% Parent remaining(Mouse) ([1]; 0 min): 100%
% Parent remaining(Mouse) ([1]; 15 min): 0.03%
% Parent remaining(Mouse) ([1]; 30 min): 0.02%
IC50 (CYP2C19): 13.2 µM
IC50 (CYP2C9): 16.7 µM
IC50 (μM) of CYP isoforms, 2J2 (CYP2J2): No inhibition
IC50 (CYP2D6): 13.2 µM
Mean (ng) Urine ([2]; 120 h): BLQ
Mean (ng) Urine ([2]; 144 h): BLQ
concentration at 144 h ([2]; male, Wistar, rat, faeces, iv, 1 mg/kg): 16.8 ng/g
Conversion: unchanged, stable in plasma [3]: 99.99%,
% Parent remaining (Human) ([3]; 0 min): 100%
% Parent remaining (Human) ([3]; 30 min): 100%
% Parent remaining (Human) ([3]; 60 min): 99.68%
% metabolised [4]: 99.99%
Observation (metabolism; for Test Product: of the formed rivaroxaban) [4]: High
% Parent remaining (Human) ([4]; 0 min): 100%
% Parent remaining (Human) ([4]; 15 min): 0.01%
% Parent remaining (Human) ([4]; 30 min): 0.01%
% metabolised [5]: 99.98%
Observation (metabolism; for Test Product: of the formed rivaroxaban) [5]: High
% Parent remaining(rat) ([5]; 0 min): 100%
% Parent remaining(rat) ([5]; 15 min): 0.01%
% Parent remaining(rat) ([5]; 30 min): 0.02%
IC50 (CYP1A2): 18.9 µM
% Parent remaining(Mouse) ([6]; 0 min): 100%
% Parent remaining(Mouse) ([6]; 30 min): 100%
% Parent remaining(Mouse) ([6]; 60 min): 100%
Conversion: unchanged, stable in plasma [7]: 88.4%,
% Parent remaining(rat) ([7]; 0 min): 100%
% Parent remaining(rat) ([7]; 30 min): 82.35%
% Parent remaining(rat) ([7]; 60 min): 88.4%
